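1) Cells in 96-well plates. 2) Compound, 48 h, 5 concentrations. 3) Linear interpolation between surrounding doses. 4) Unreached endpoint = highest concentration. GI50: concentration for 50% inhibition of growth.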 Calls of active or inactive are those of the source. No stated cut-off is given here; in the data, active = GI50 up to about 1.1 µM and inactive = higher.
Columns and labels:
Assay in all cases: inhibition of tumour cell growth, NCI panel, 48 h
[1] = test system: SK-MEL-5
[2] = test system: Hs-578T
[3] = test system: NCI/ADR-RES
[4] = test system: LOX IMVI
[5] = test system: HCC 2998
[6] = test system: CCRF-CEM
[7] = test system: SNB-19
[8] = test system: SW-620
[9] = test system: UO-31
[10] = test system: UACC-62
[11] = test system: KM12
[12] = test system: SF-539
[13] = test system: U-251
[14] = test system: HCT-116
[15] = test system: SF-295
[16] = test system: MDA-N
[17] = test system: SF-268
[18] = test system: SN12C
[19] = test system: NCI-H23
[20] = test system: NCI-H522

| Compound | GI50 [1] | GI50 [2] | GI50 [3] | GI50 [4] | GI50 [5] | GI50 [6] | GI50 [7] | GI50 [8] | GI50 [9] | GI50 [10] | GI50 [11] | GI50 [12] | GI50 [13] | GI50 [14] | GI50 [15] | GI50 [16] | GI50 [17] | GI50 [18] | GI50 [19] | GI50 [20] |
| --- | --- | --- | --- | --- | --- | --- | --- | --- | --- | --- | --- | --- | --- | --- | --- | --- | --- | --- | --- | --- |
| CSc1nc(NC2CCCC2)c2cc[nH]c2n1 | 35.2 µM (inactive) | 53.1 µM (inactive) | 71.1 µM (inactive) | 37.6 µM (inactive) | > 100 µM (inactive) | 47.4 µM (inactive) | 66.7 µM (inactive) | > 100 µM (inactive) | 48.1 µM (inactive) | 23.5 µM (inactive) | 54.6 µM (inactive) | > 100 µM (inactive) | 36.4 µM (inactive) | 35.2 µM (inactive) | 34.8 µM (inactive) | 54.3 µM (inactive) | 68.7 µM (inactive) | > 100 µM (inactive) | 91 µM (inactive) | 66.8 µM (inactive) |
| O=C(CCCC1Cc2ccccc2C1=O)c1ccccc1 (stereo not given) | 35.6 µM (inactive) | > 100 µM (inactive) | 26.9 µM (inactive) | 34.8 µM (inactive) | > 100 µM (inactive) | 66.5 µM (inactive) | 89.9 µM (inactive) | > 100 µM (inactive) | 47.1 µM (inactive) | 69.5 µM (inactive) | 96.4 µM (inactive) | > 100 µM (inactive) | 38.6 µM (inactive) | 63.8 µM (inactive) | 47.5 µM (inactive) | 66.2 µM (inactive) | > 100 µM (inactive) | 54.7 µM (inactive) | 60.1 µM (inactive) | 52.7 µM (inactive) |
| CCOC(=O)C(C(N)=O)C1=Nc2cc([N+](=O)[O-])ccc2N/C1=C\C(=O)c1ccc(C)cc1 (stereo not given) | 33.9 µM (inactive) | 21.6 µM (inactive) | 22.1 µM (inactive) | 23.3 µM (inactive) | 23.3 µM (inactive) | 23.6 µM (inactive) | 20.7 µM (inactive) | 28.7 µM (inactive) | 17.6 µM (inactive) | 30.3 µM (inactive) | 31.2 µM (inactive) | 17.1 µM (inactive) | 15.5 µM (inactive) | 20.7 µM (inactive) | 19.4 µM (inactive) | 43.3 µM (inactive) | 15.1 µM (inactive) | 26.2 µM (inactive) | 16.9 µM (inactive) | 17.7 µM (inactive) |
| COc1ccc2cc1Oc1ccc(cc1)CC1c3cc(OC)c(cc3CCN1C)Oc1c(OC)c(OC)cc3c1C(C2)N(C)CC3 (stereo not given) | 6.79 µM (inactive) | 10.8 µM (inactive) | 14 µM (inactive) | 9.98 µM (inactive) | 9.62 µM (inactive) | 17.7 µM (inactive) | 12.7 µM (inactive) | 26.2 µM (inactive) | 9.42 µM (inactive) | 12.8 µM (inactive) | 12.7 µM (inactive) | 8.95 µM (inactive) | 10.2 µM (inactive) | 19.1 µM (inactive) | 9.06 µM (inactive) | 10.5 µM (inactive) | 12.9 µM (inactive) | 9.02 µM (inactive) | 15.1 µM (inactive) | 9.89 µM (inactive) |
| CN(C)c1ccc2cc3ccc(N(C)C)cc3nc2c1 [ACRIDINE ORANGE] | 1.99 µM (inactive) | 2.5 µM (inactive) | 1.43 µM (inactive) | 1.31 µM (inactive) | 0.56 µM (active) | 0.678 µM (active) | 0.984 µM (active) | 0.49 µM (active) | 0.871 µM (active) | 4.05 µM (inactive) | 0.488 µM (active) | 1.88 µM (inactive) | 1.24 µM (inactive) | 0.316 µM (active) | 2.08 µM (inactive) | 1.19 µM (inactive) | 1.52 µM (inactive) | 0.962 µM (active) | 1.51 µM (inactive) | 1.58 µM (inactive) |
